A short description of series [1]: Antiproliferative activity against VEGF-C-induced human dermal lymphatic endothelial cells assessed as cell viability incubated for 48 hrs by CCK-8 assay. Format: functional, tissue-based. As to conditions: HDLEC. (Formazan colour is commonly taken as a measure of viable cells.)
Series [2] concerns HDLEC. The experiment in a line: Antimigratory activity against VEGF-C-induced human dermal lymphatic endothelial cells assessed as cell migration at 100 nM incubated for 12 hrs by inverted microscopy based by transwell assay. Format: functional, tissue-based.
Series [3] relates to MDA-MB-436. The experiment in a line: Induction of apoptosis in human MDA-MB-436 cells assessed as cleaved caspase 3 up to 10 uM incubated for 24 hrs by Western blotting analysis. Format: functional, cell-based. Conditions: dose microM <=10, time 24.0 hrs. In general terms: In western blotting, separated proteins are transferred to a membrane and probed.
In series [4] the target is Vascular endothelial growth factor receptor 3 (Homo sapiens, UniProt P35916). As to the kind of experiment: Inhibition of VEGFR3 in human MDA-MB-436 cells assessed as inhibition of STAT5 phosphorylation at 2.5 uM incubated for 24 hrs by Western blot analysis. Format: cell-based.
Sequence of Vascular endothelial growth factor receptor 3 (P35916 whole entry): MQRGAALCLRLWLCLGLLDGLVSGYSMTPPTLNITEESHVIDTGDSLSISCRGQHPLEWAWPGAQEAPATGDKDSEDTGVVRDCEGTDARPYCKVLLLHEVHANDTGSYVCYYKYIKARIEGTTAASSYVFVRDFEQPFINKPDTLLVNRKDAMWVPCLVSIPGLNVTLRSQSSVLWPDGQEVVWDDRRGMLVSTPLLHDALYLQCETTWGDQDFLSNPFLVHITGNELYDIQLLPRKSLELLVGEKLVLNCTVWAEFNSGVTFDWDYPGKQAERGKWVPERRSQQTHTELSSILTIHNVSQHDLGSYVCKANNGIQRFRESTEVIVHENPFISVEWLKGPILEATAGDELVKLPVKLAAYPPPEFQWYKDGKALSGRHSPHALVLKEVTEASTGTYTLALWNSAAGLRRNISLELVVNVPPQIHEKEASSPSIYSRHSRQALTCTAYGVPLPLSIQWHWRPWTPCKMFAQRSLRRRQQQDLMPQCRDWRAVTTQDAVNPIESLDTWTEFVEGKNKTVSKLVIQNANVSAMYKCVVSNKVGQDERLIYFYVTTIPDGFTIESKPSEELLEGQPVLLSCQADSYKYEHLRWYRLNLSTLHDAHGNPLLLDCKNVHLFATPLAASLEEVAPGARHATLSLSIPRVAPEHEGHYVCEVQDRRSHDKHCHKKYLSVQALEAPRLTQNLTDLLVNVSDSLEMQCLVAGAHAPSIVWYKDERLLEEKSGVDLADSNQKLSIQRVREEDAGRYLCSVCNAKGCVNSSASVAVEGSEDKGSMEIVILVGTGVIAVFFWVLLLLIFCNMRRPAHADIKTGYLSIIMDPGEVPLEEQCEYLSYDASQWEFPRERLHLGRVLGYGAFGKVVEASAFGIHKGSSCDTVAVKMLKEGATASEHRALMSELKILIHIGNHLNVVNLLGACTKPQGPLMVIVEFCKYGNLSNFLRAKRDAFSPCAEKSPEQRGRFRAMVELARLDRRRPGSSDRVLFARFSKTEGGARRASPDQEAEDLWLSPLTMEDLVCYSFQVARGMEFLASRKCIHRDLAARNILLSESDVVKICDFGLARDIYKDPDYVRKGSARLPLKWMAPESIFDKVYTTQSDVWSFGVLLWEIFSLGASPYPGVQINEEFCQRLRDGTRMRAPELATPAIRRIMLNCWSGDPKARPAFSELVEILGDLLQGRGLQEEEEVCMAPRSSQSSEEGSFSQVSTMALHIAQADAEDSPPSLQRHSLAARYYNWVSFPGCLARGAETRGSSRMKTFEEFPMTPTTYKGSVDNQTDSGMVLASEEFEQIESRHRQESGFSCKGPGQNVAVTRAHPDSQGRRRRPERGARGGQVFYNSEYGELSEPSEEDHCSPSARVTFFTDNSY
Series [5] is described as follows: AUC (0 to infinity) in Sprague-Dawley rat at 1 mg/kg, iv by LC-MS analysis. Format: ADME, organism-based. More on the design: time infinity, route intravenous, dose 1 mg/kg. Conditions: in vivo.
Series [6] in a line: Toxicity in BALB/c mouse xenografted with MDA-MB-231 cells assessed as uric acid level in blood at 300 mg/kg, po. Format: organism-based. Conditions: in vivo.

Each structure is given as a SMILES string. Active and inactive are the calls of the source. The calls are words filed in the database; no cut-off is given here.

In general, IC50 refers to the concentration needed to halve the response being measured. What is called AUC(0-inf) is the area under the concentration-time curve extrapolated to infinity. A high value points to more exposure. With `CN1CCN(c2ccc(-c3cc4c(N5CCN(C(=O)Nc6ccc(Cl)c(C(F)(F)F)c6)CC5)ncnc4s3)cc2)CC1`, the IC50 in series [1] is 250 nM. The result in series [2] and in series [3] was Active. Also, in series [4], the inhibition result was “Active”. The compound further had an AUC(0-inf) in series [5] of 3480 ng·h/mL. Also, in series [6], the Activity entry is on record as “Non-Toxic”.

Values taken from ChEMBL document CHEMBL4837240 (J Med Chem, 2021).
